Data taken from patent US11136297B2, “Compositions and methods for treating cancer” (THE REGENTS OF THE UNIVERSITY OF CALIFORNIA, priority 2016, dated 2021).

What was measured:
[1] = molecular target: T1, H-Ras(M72C) bound to either GDP or GppNHp (Homo sapiens, UniProt P01112, M72C); experiment: Electrophile labeling experiments (percent modification by whole protein LC/MS); type: binding
T1 construct: Labeling studies were conducted using the 1-166 H-Ras(M72C) construct containing all endogenous cysteines; His6; made in house; host or cells: Escherichia coli BL21(DE3)
Protocol: Electrophile Labeling Experiments.
Each reaction was analyzed in a 96 well plate format for analysis by LC/MS. Total reaction volumes were 25 μL for single time point labeling experiments and 200 uL for full 24-hour time courses. 25 μL reactions were made in the wells of a V-bottom 96 well plate and 200 uL reactions were made in 1.25 mL eppendorf tubes. All labeling reactions were conducted in Gel Filtration Buffer (20 mM HEPES (pH 7.5), 150 mM NaCl) with no added reductant at room temperature. […] Electrophile stocks were made in DMSO at 10 mM, aliquoted, and frozen. Labeling reactions were started by the addition of the desired volume of 10 mM electrophile stock and mixed thoroughly by pipette. General screening of new electrophiles was done at 100 μM electrophile in triplicate and sampled as a single time point after 24 hours of incubation. For Compound 3, labeling time courses were conducted at 20 μM compound with sampling done every 2 hours for the first 10 hours of incubation and continued after overnight incubation until the protein was fully modified. Reactions were allowed to sit at room temperature in the dark (either covered in aluminum foil or in a bench drawer) until the desired time point was reached. For 24-hour single point labeling experiments, the reaction was directly sampled from the 96 well plate and analyzed by LC/MS. For experiments with multiple time points, 22.5 μL aliquots of the 200 μL master reaction were sampled and quenched by the addition of 2.5 μL of 2% formic acid (also made in Gel Filtration Buffer). This 25 μL quenched sample was then analyzed by LC/MS and the remaining master reaction was allowed to continue reacting after gentle mixing by pipette. The percent modification was analyzed by electrospray mass spectrometry using a Waters Acquity UPLC/ESI-TQD with a 2.1×50 mm Acquity UPLC BEH300 C4 column.

[2] = molecular target: T2, 1-181 H-Ras(G12V/M72C/C118S) (Homo sapiens, UniProt P01112, C118S/G12V/M72C); experiment: Coupling of Compound 3 to H-Ras M72C construct for lipid kinase assays; type: binding; conditions: M72C construct with 200-250 Compound 3, 72 hours, 4° C.
T2 construct: Plasmids expressing 1-181 H-Ras(G12V/C118S) and H-Ras(G12V/M72C/C118S); His tag (purified on HisTrap, TEV-cleavable) (cleaved yes); made in house; host or cells: Escherichia coli BL21 DE3
Protocol: Coupling to inhibitor was done in a reaction containing […], 100 mM TCEP, 1 mM MgCl2 and […] Compound 3. DMSO was adjusted to a final concentration of 5%. After 24 hours, more inhibitor was added to a total final concentration of […]. The coupling was allowed to proceed for −72 hours at 4° C. Coupling efficiency was −70%. The coupled protein was exchanged with gel filtration buffer and loaded with GTPgS in the same manner as the H-Ras(G12V) construct. The protein was then run on a Superdex™ 75 10/300 GL size-exclusion column (GE Healthcare) equilibrated in Ras gel filtration buffer to remove excess nucleotide.

[3] = molecular target: T3, p110d/p85a (PI3K-d) activation by H-Ras-GTP (Homo sapiens, UniProt P01112, C118S/G12V/M72C); experiment: PI3K lipid kinase assay with membrane-coupled H-Ras (Transcreener ADP2 FI); type: biochemical; conditions: with pY phosphopeptide; H-Ras(G12V) alone gave 20-fold
T3 construct: Plasmids expressing 1-181 H-Ras(G12V/C118S) and H-Ras(G12V/M72C/C118S); His tag (purified on HisTrap, TEV-cleavable) (cleaved yes); made in house; host or cells: Escherichia coli BL21 DE3 (H-Ras)
Protocol: Purification and Modification of H-Ras Constructs for Lipid Kinase Assays. Plasmids expressing 1-181 H-Ras(G12V/C118S) and H-Ras(G12V/M72C/C118S) were transformed into BL21 DE3 and the culture was induced at OD 0.6-0.9 with […] IPTG. The cultures were then allowed to grow for 4 h at 37° C. after which the cells were pelleted and stored at −80° C. Frozen pellets were re-suspended in lysis buffer and lysed by sonication (10s ON; 10s OFF; Power-6.0). Triton-X was added to a final concentration of 0.1% and lysate was centrifuged at 20,000 g for 45 minutes (Beckman Coulter Avanti J-251, JA 25.50 rotor). The supernatant was loaded on a 5 mL HisTrapTm FF column (GE Healthcare) equilibrated with buffer containing 10 mM imidazole pH 8.0 (NiNTA A). Following washes with 20 mL NiNTA A and 20 mL of 6% buffer containing 200 mM imidazole pH 8.0 (NiNTA B), the protein was eluted in 100% NiNTA B. The elution was buffer exchanged with NiNTA A buffer in a 10,000 MWCO Amicon concentrator (Millipore). The sample was concentrated down to <2 mL and TEV protease was added to −0.3 mg/mL. The cleavage was allowed to proceed overnight at 4° C. To de-enrich the TEV protease, the protein solution was loaded onto a HisTrapTm FF column and eluted with 10 mL of NiNTA A buffer. The elution was concentrated to −2 mL. […]

In the case of C=CC(=O)Nc1cc(Cl)cc(NC(=O)c2cnn(-c3ccc(OC)cc3)c2C(F)(F)F)c1 [Compound 3, N-(3-acrylamido-5-chlorophenyl)-1-(4-methoxyphenyl)-5-(trifluoromethyl)-1H-pyrazole-4-carboxamide], the “Percent modification (labeling of Cys 72)” value ([1]; 4 μM H-Ras(M72C) GDP or GppNHp, 100 μM electrophile, 24 hours) is reported as “improved covalent binding”, the “labeling of the GDP state” value ([1]; H-Ras(M72C) GDP, 20 μM electrophile (1:5 Ras to Compound 3), time course) is reported as “rapidly and fully labels the GDP state” and the “modification of the GppNHp state” value ([1]; H-Ras(M72C) GppNHp, 20 μM electrophile (1:5 Ras to Compound 3)) is reported as 88.7%. For the same compound, the Coupling efficiency [2] was 70% and the “activation of PI3K-d activity by H-Ras(G12V/M72C) bound to compound” value [3] was ~3 fold.
